These results are taken from patent publication US11530205B2, “GLP-1 receptor modulators” (RECEPTOS LLC, priority 2017, dated 2022).

This assay has as its target T1, Human GLP-1R (Homo sapiens, UniProt P43220).
T1 construct: expressed in transfected cells; host or cells: CRE-bla CHO-K1 (Chinese hamster ovary) cells
The assay is described as follows: EC20 GLP-1(9-36) PAM cAMP assay: dose response of compound in the presence of fixed concentration of GLP-1(9-36). Type of assay: cell-based. Particulars: Human GLP-1R CRE-bla CHO-K1 cells, 60 nM GLP-1(9-36), 30 minutes at 37° C. How it is done: EC20GLP-1(9-36) PAM cAMP Assay: Dose Response of Compound in the Presence of Fixed Concentration of GLP-1 (9-36)
Human GLP-1R CRE-bla CHO-K1 cells were cultured in growth medium (DMEM-High glucose, 10% dialyzed FBS, 0.1 mM NEAA, 25 mM Hepes, 100 U/mL penicillin/100 μg/mL streptomycin, 5 μg/mL Blasticidin, 600 μg/mL Hygromycin), trypsinized and plated in suspension into 384-well white flat bottom plates at 5000 cells/well in 12 μL assay buffer (Hank's Balanced Salt Solution, 10 mM Hepes, 0.1% BSA, pH 7.4). Each compound at a 5× concentration was diluted to a final concentration range of 10 to 0.01 μM (11 points) in assay buffer containing 1.5 mM IBMX and 4% DMSO. GLP-1(9-36) was diluted from 4.2 μM (30 x) to a final assay concentration of 60 nM in assay buffer containing 1.5 mM IBMX and 4% DMSO. Each compound concentration (5×) was added (3 μL), followed by 0.5 μL of GLP-1(9-36) and cells incubated for 30 minutes at 37° C. The peptide was added to the wells using siliconized tips. The reaction was stopped and levels of cAMP were quantified using the DiscoverX HitHunter cAMP kit according to the manufacturer's instructions and luminescence was detected using a SpectraMax M5 Multi-Mode Microplate reader. Luminescence was converted to total cAMP using a cAMP standard curve and data were analyzed by non-linear regression to determine the EC50 and Emax for each compound.
For orientation: cAMP levels reflect the balance of adenylyl cyclase and phosphodiesterase activity.

Molecules are shown by their SMILES.

T1 sequence (P43220 24-463): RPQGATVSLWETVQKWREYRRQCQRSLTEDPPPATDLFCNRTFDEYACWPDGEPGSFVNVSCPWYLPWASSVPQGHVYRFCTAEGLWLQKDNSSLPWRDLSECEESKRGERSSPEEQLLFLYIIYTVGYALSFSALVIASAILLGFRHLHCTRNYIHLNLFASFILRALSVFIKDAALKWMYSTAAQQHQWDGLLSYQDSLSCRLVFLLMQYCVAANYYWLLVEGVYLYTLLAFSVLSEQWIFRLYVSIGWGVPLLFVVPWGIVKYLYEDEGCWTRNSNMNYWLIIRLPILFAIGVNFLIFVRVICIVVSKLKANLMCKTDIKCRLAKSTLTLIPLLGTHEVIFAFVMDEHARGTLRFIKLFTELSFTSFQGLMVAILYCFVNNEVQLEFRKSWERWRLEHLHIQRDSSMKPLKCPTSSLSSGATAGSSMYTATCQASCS

As to `CC[C@H]1CC[C@H](C2CC=C(c3cnc(-c4ccc(CN(CC(=O)O)C(=O)CCC(=O)CN5c6cccc7cccc(c67)S5(=O)=O)cc4)nc3)CC2)CC1` (stereo partly drawn) [Compound 127], the EC50 is below 800 nM.

`COc1ccc(CC(=O)Nc2ccc(C(=O)N(CC(=O)O)Cc3ccc(-c4ncc(C5=CCC(C(C)(C)C)CC5)cn4)cc3)cc2)c(C(F)(F)F)c1` (stereo not drawn) [Compound 77]: the EC50 lay in the range of 2500 to 5000 nM.

As to `COc1ccc(CC(=O)Nc2ccc(C(=O)N(CC(=O)O)Cc3ccc(-c4cnc(C5=CCC(C(C)C)CC5)cn4)cc3)cc2)cc1` (stereo not drawn) [Compound 88], the EC50 was in the range of 800 to 2500 nM.

With `CC[C@H]1CC[C@@H]([C@@H]2CC=C(c3cnc(-c4ccc(CN(CC(=O)O)C(=O)CNC(=O)Cc5ccc(OC)cc5)cc4)nc3)CC2)CC1` [Compound 118], the EC50 is 800 to 2500 nM.

For `CC[C@H]1CC[C@H](C2CC=C(c3cnc(-c4ccc(CN(CC(=O)N5CC[C@H](C(=O)O)C5)C(=O)c5ccc(NC(=O)Cc6ccc(OC)cc6C(F)(F)F)cc5)cc4)nc3)CC2)CC1` (stereo partly drawn) [Compound 15], the EC50 is below 800 nM.

As to `CC[C@H]1CC[C@H](C2CC=C(c3cnc(-c4ccc(CN(CC(=O)O)C(=O)c5ccc(NC(=O)CCc6ccc(OC)cc6)cc5)cc4)nc3)CC2)CC1` (stereo partly drawn) [Compound 93], the EC50 is below 800 nM.

Broadly, the EC50 is the concentration at which the effect is half-maximal.
